Assay results: US12097179B2, “Carbazole derivatives for the treatment of fibrotic diseases and related symptoms, and conditions thereof” (Raziel Therapeutics Ltd., priority 2015, dated 2024)

What was measured:
[1] = tested on: scar formation in pigs; test: Remote effect of local s.c. fat injection on scar formation in pigs (RZL-012 vs Kythera/Kybella); format: in vivo; details: pig; for Collagen fibers in scar-tissue (H & E histology): compared with Kythera scar tissue
From the text: The objective of this study is to evaluate the remote effect on local injection of RZL-012 of the invention (5-(3,6-dibromo-9H-carbazol-9-yl)-N,N,N-trimethylpentan-1-aminium) into the s.c. fat, on scar formation in pigs, compared with Kybella (an injectable formulation of Deoxycholate developed by Kythera) an agent that bluntly destroys s.c. fat.
• 1. Kythera preparation (according to published formulation): an aqueous solution of 5% Phosphatidylcholine, 4.75% Sodium deoxycholate and 0.9% Benzyl Alcohol. • 2. RZL-012 of the invention (5-(3,6-dibromo-9H-carbazol-9-yl)-N,N,N-trimethylpentan-1-aminium) of the invention preparation: 5.0% (w/v) RZL-012 in the below indicated formulation: […]
Eighty kilogram pigs were injected with either Kythera or RZL-012 of the invention preparation, into the s.c. fat (1 cm depth, 27 G needle), at 10 sites, divided into two clusters, on the right flank only. The injection at each site was of a volume of 0.5 ml. In addition, a cut through the s.c. fat was made at the midline of each pig at the right and at the left flank.
Animals were housed in the animal unit of Biotechfarm, Israel and fed on a diet weighing 2% of body weight (B.W.) per day divided to two meals, based on the last effective weekly body weighing.
After 2 months from the day of treatment, the animals were sacrificed; the scars on both sides were photographed before and after making a cross section in the middle of each scar. Thereafter, tissue samples of all cross-sections were formalin-fixed and processed for H & E histology staining.

[2] = tested on: kidney fibrosis; test: Unilateral ureteral ligation (UUO) kidney fibrosis model; format: in vivo, rat; details: male SD rats, RZL-012 15 mg s.c. into fat at Day 14 and Day 42, sacrifice 8 weeks after UUO, vs Vehicle
Experimental: • Animals: Male SD Rats, 250 g. • Induction of kidney fibrosis: Overnight fasted rats were anesthetized (a mixture of Ketamine 20 mg/kg and Xylazin 2 mg/kg IP). The abdominal cavity was exposed via a midline incision up to 0.5-1 cm before penis about 3 cm along. Then the bladder was lifted out and epididymal fat was remoted. The left ureter was ligated at two points with 4-0 sutures. The wound was closed in layers with the same sutures. Then animals were returned to the cages. […] The tissue sections were stained with Masson-Trichrome which enable a distinction between fibrotic tissue (staining collagen fiber in Blue) and normal viable tissue (Purple-Red) (see FIG. 6C). • Quantification of kidney fibrosis: In order to quantify, in an unbiased way, the fibrotic response in RZL-treated vs. non-treated rats, the dimensions of the fibrotic layer surrounding aortic blood vessel, were measured. All aortic vessels in each affected kidney were analyzed in the following way: The vessel wall consists of two components, the usual Muscular layer and an outer layer, excessively rich in collagen, in these kidneys, hereby defined as “Adventitia” (FIG. 6C). The net width of the adventitia and that of the Muscular layer were calculated as follows: […]

C[N+](C)(C)CCCCCn1c2ccc(Br)cc2c2cc(Br)ccc21 [RZL-012, 5-(3,6-dibromo-9H-carbazol-9-yl)-N,N,N-trimethylpentan-1-aminium]
Macroscopic view of the scar at the left, non-treated side ([1]; 2 months after s.c. fat injection on right flank only, external view, compared with Kythera treated pig): much finer
Scar tissue seen after a cross section through the scar (macroscopic) ([1]; 2 months sacrifice, cross-section through the middle of the scar, non-treated side (L)): no apparent scare tissue was observed
Difference in the scar tissue width ([1]; 2 months, H & E histology, careful measurement, RZL-012 vs Kythera treated pig): 4-5 times
Collagen fibers in scar-tissue (H & E histology) ([1]; 2 months, X20 objective magnification): less collagen fibers
Collagen fibers in scar-tissue (H & E histology) ([1]; 2 months, X40 objective magnification): less collagen fibers
Width of fibrotic tissue (scar histology, H & E) ([1]; 2 months, both sides, X10 objective magnification, RZL-012 vs Kythera treated pig): much thinner
Kidney fibrosis (Adventitia/Muscular layers ratio, Masson-Trichrome) [2]: significant inhibition of kidney fibrosis
